Measured values reported in ChEMBL document CHEMBL1149762, “Carbamate prodrugs of N-alkylfuramidines” (Eur J Med Chem, 2008).

Columns and labels:
Pneumocystis carinii [1] = assay: Antimicrobial activity against Pneumocystis carinii in immunosuppressed rat assessed as number of cysts/g of lung at 33.0 umol/kg/day, po relative to control; format: functional
Rattus norvegicus [2] = assay: Toxicity against immunosuppressed rat pneumocystis model at 22.0 umol/kg/day, iv; format: organism-based; settings: in vivo
Rattus norvegicus [3] = assay: Toxicity against immunosuppressed rat pneumocystis model at 33.0 umol/kg/day, po; format: organism-based; settings: in vivo
Pneumocystis carinii [4] = assay: Antimicrobial activity against Pneumocystis carinii in immunosuppressed rat assessed as number of cysts/g of lung at 22.0 umol/kg/day, iv relative to control; format: functional
Pneumocystis carinii [5] = assay: Antimicrobial activity against Pneumocystis carinii in immunosuppressed rat assessed as number of cysts/g of lung at 9.4 umol/kg/day, iv relative to control; format: functional
Pneumocystis carinii [6] = assay: Antimicrobial activity against Pneumocystis carinii in immunosuppressed rat assessed as number of cysts/g of lung at 10.8 umol/kg/day, iv relative to control; format: functional
Rattus norvegicus [7] = assay: Toxicity against immunosuppressed rat pneumocystis model at 10.8 umol/kg/day, iv; format: organism-based; settings: in vivo
Rattus norvegicus [8] = assay: Toxicity against immunosuppressed rat pneumocystis model at 39.8 umol/kg/day, po; format: organism-based; settings: in vivo
Pneumocystis carinii [9] = assay: Antimicrobial activity against Pneumocystis carinii in immunosuppressed rat assessed as number of cysts/g of lung at 13.3 umol/kg/day, iv relative to control; format: functional
Pneumocystis carinii [10] = assay: Antimicrobial activity against Pneumocystis carinii in immunosuppressed rat assessed as number of cysts/g of lung at 39.8 umol/kg/day, po relative to control; format: functional
Rattus norvegicus [11] = assay: Toxicity against immunosuppressed rat pneumocystis model at 13.3 umol/kg/day, iv; format: organism-based; settings: in vivo
Rattus norvegicus [12] = assay: Toxicity against immunosuppressed rat pneumocystis model at 11.0 umol/kg/day, iv; format: organism-based; settings: in vivo
Pneumocystis carinii [13] = assay: Antimicrobial activity against Pneumocystis carinii in immunosuppressed rat assessed as number of cysts/g of lung at 11.0 umol/kg/day, iv relative to control; format: functional

Compound	Activity (Pneumocystis carinii [1]) [%]	Activity (Rattus norvegicus [2])	Activity (Rattus norvegicus [3])	Activity (Pneumocystis carinii [4]) [%]	further results
CC(C)N/C(=N\C(=O)OCC(Cl)(Cl)Cl)c1ccc(-c2ccc(-c3ccc(/C(=N\C(=O)OCC(Cl)(Cl)Cl)NC(C)C)cc3)o2)cc1	2.01	Non-toxic	Non-toxic	0.02	
N=C(N)c1ccc(OCCCCCOc2ccc(C(=N)N)cc2)cc1 [PENTAMIDINE]	67.78		Non-toxic	2.75	
N=C(NC1CCCC1)c1ccc(-c2ccc(-c3ccc(C(=N)NC4CCCC4)cc3)o2)cc1	125.3		Non-toxic		Activity (Pneumocystis carinii [5]): 0.04%
CC(C)NC(=N)c1ccc(-c2ccc(-c3ccc(C(=N)NC(C)C)cc3)o2)cc1	78.52		Non-toxic		Activity (Pneumocystis carinii [6]): 0.26%; Activity (Rattus norvegicus [7]): Non-toxic
N/C(=N\C(=O)OCC(Cl)(Cl)Cl)c1ccc(-c2ccc(-c3ccc(/C(N)=N\C(=O)OCC(Cl)(Cl)Cl)cc3)o2)cc1	5.45	Non-toxic	Non-toxic	1.72	
CONC(=N)c1ccc(-c2ccc(-c3ccc(C(=N)NOC)cc3)o2)cc1 [PAFURAMIDINE]	1.21	Non-toxic	Non-toxic	13.99	
N=C(N)c1ccc(-c2ccc(-c3ccc(C(=N)N)cc3)o2)cc1 [FURAMIDINE]					Activity (Rattus norvegicus [8]): Non-toxic; Activity (Pneumocystis carinii [9]): 0.86%; Activity (Pneumocystis carinii [10]): 15.67%; Activity (Rattus norvegicus [11]): Non-toxic
O=C(/N=C(\NC1CCCC1)c1ccc(-c2ccc(-c3ccc(/C(=N\C(=O)OCC(Cl)(Cl)Cl)NC4CCCC4)cc3)o2)cc1)OCC(Cl)(Cl)Cl	3.7	Non-toxic	Non-toxic	39.84	
CCOC(=O)/N=C(\NC(C)C)c1ccc(-c2ccc(-c3ccc(/C(=N/C(=O)OCC)NC(C)C)cc3)o2)cc1	51.92		Non-toxic		Activity (Rattus norvegicus [12]): Non-toxic; Activity (Pneumocystis carinii [13]): 82.21%
